These results are taken from patent publication US20230399324A1, “AGENTS FOR TREATING DISORDERS INVOLVING RYANODINE RECEPTORS” (ARMGO Pharma, Inc., priority 2020, published 2023).

Where “and” joins values, the source holds several entries; their conditions need not be identical. Equal entries are not always repeated. Entries after “also recorded” stand apart in the source; their conditions may differ. Where two headings read alike, the source gives them in different places.

In data set [1] the test system is cardiomyocytes isolated from mouse heart. Description: Inhibition of unstimulated calcium release events in cardiomyocytes (isoproterenol-induced). The format is cell-based, C57BL/6 mice. To be noted: Cardiomyocyte, 10 μM compound, isoproterenol 1 uM, percent inhibition of controls B vs A. The method, then:
Compounds of the disclosure were evaluated for an effect on isoproterenol-induced inhibition of unstimulated calcium release events in cardiomyocytes isolated from mouse heart.
Adult cardiomyocytes are isolated from female, 28-32 grams C57BL/6 mice using a perfusion solution containing Liberase TH (Sigma Aldrich, #05-401-151001). After isolation, Ca^2+ is reintroduced in 5 steps at 4 min intervals. Then cells are plating (Time Cero) with a density of 5000-7000 rod cells in 100 μl of Cardiomyocyte Culture Medium (MEM, Invitrogen, #11575-032) containing Blebbistatin and compound treatment at various concentrations (0.01 to 10 uM). After 1 hrs of compound treatment cells are treated with Isoproterenol (1 uM). After 2 hrs of compound treatment cells are loaded with a Ca^2+ indicator (Fluo-4-AM, Invitrogen #F14202). After 3 hrs of compound treatment MEM is quickly but gently removed and the cells re-suspended in recording solution (Ca^2+ 2 mM, Isoproterenol 1 uM) for field stimulations using custom-designed electrodes. Cells are stimulated for 20 seconds at 0.5 Hz, then for 5 seconds at 5 Hz.
One Study=3 experiments. One experiment=1 mouse. Each experiment has 3 controls in triplicate: • A) Ca^2+ • B) Ca^2++Isoproterenol • C) Ca^2++Isoproterenol+Control Compound.
The first step in the analysis is to determine the number of responders based on four conditions. Responders are then analyzed to determine the number of unstimulated calcium release events, which are peaks of sufficient intensity, measured in the post-5 Hz stimulation period. Effect of test compounds (Ca^2++Isoproterenol+Test Compound in triplicate) are expressed as a percent inhibition of the controls B vs A.
All compounds were tested at 10 μM.

For data set [2], the target named is T1, RyR2 (Homo sapiens, UniProt Q92736). Description: 35S-labelled Calstabin2 binding to human HD cortex microsomes, dose curve. As to conditions: FIG. 2.
Target sequence in this assay (Q92736 whole entry): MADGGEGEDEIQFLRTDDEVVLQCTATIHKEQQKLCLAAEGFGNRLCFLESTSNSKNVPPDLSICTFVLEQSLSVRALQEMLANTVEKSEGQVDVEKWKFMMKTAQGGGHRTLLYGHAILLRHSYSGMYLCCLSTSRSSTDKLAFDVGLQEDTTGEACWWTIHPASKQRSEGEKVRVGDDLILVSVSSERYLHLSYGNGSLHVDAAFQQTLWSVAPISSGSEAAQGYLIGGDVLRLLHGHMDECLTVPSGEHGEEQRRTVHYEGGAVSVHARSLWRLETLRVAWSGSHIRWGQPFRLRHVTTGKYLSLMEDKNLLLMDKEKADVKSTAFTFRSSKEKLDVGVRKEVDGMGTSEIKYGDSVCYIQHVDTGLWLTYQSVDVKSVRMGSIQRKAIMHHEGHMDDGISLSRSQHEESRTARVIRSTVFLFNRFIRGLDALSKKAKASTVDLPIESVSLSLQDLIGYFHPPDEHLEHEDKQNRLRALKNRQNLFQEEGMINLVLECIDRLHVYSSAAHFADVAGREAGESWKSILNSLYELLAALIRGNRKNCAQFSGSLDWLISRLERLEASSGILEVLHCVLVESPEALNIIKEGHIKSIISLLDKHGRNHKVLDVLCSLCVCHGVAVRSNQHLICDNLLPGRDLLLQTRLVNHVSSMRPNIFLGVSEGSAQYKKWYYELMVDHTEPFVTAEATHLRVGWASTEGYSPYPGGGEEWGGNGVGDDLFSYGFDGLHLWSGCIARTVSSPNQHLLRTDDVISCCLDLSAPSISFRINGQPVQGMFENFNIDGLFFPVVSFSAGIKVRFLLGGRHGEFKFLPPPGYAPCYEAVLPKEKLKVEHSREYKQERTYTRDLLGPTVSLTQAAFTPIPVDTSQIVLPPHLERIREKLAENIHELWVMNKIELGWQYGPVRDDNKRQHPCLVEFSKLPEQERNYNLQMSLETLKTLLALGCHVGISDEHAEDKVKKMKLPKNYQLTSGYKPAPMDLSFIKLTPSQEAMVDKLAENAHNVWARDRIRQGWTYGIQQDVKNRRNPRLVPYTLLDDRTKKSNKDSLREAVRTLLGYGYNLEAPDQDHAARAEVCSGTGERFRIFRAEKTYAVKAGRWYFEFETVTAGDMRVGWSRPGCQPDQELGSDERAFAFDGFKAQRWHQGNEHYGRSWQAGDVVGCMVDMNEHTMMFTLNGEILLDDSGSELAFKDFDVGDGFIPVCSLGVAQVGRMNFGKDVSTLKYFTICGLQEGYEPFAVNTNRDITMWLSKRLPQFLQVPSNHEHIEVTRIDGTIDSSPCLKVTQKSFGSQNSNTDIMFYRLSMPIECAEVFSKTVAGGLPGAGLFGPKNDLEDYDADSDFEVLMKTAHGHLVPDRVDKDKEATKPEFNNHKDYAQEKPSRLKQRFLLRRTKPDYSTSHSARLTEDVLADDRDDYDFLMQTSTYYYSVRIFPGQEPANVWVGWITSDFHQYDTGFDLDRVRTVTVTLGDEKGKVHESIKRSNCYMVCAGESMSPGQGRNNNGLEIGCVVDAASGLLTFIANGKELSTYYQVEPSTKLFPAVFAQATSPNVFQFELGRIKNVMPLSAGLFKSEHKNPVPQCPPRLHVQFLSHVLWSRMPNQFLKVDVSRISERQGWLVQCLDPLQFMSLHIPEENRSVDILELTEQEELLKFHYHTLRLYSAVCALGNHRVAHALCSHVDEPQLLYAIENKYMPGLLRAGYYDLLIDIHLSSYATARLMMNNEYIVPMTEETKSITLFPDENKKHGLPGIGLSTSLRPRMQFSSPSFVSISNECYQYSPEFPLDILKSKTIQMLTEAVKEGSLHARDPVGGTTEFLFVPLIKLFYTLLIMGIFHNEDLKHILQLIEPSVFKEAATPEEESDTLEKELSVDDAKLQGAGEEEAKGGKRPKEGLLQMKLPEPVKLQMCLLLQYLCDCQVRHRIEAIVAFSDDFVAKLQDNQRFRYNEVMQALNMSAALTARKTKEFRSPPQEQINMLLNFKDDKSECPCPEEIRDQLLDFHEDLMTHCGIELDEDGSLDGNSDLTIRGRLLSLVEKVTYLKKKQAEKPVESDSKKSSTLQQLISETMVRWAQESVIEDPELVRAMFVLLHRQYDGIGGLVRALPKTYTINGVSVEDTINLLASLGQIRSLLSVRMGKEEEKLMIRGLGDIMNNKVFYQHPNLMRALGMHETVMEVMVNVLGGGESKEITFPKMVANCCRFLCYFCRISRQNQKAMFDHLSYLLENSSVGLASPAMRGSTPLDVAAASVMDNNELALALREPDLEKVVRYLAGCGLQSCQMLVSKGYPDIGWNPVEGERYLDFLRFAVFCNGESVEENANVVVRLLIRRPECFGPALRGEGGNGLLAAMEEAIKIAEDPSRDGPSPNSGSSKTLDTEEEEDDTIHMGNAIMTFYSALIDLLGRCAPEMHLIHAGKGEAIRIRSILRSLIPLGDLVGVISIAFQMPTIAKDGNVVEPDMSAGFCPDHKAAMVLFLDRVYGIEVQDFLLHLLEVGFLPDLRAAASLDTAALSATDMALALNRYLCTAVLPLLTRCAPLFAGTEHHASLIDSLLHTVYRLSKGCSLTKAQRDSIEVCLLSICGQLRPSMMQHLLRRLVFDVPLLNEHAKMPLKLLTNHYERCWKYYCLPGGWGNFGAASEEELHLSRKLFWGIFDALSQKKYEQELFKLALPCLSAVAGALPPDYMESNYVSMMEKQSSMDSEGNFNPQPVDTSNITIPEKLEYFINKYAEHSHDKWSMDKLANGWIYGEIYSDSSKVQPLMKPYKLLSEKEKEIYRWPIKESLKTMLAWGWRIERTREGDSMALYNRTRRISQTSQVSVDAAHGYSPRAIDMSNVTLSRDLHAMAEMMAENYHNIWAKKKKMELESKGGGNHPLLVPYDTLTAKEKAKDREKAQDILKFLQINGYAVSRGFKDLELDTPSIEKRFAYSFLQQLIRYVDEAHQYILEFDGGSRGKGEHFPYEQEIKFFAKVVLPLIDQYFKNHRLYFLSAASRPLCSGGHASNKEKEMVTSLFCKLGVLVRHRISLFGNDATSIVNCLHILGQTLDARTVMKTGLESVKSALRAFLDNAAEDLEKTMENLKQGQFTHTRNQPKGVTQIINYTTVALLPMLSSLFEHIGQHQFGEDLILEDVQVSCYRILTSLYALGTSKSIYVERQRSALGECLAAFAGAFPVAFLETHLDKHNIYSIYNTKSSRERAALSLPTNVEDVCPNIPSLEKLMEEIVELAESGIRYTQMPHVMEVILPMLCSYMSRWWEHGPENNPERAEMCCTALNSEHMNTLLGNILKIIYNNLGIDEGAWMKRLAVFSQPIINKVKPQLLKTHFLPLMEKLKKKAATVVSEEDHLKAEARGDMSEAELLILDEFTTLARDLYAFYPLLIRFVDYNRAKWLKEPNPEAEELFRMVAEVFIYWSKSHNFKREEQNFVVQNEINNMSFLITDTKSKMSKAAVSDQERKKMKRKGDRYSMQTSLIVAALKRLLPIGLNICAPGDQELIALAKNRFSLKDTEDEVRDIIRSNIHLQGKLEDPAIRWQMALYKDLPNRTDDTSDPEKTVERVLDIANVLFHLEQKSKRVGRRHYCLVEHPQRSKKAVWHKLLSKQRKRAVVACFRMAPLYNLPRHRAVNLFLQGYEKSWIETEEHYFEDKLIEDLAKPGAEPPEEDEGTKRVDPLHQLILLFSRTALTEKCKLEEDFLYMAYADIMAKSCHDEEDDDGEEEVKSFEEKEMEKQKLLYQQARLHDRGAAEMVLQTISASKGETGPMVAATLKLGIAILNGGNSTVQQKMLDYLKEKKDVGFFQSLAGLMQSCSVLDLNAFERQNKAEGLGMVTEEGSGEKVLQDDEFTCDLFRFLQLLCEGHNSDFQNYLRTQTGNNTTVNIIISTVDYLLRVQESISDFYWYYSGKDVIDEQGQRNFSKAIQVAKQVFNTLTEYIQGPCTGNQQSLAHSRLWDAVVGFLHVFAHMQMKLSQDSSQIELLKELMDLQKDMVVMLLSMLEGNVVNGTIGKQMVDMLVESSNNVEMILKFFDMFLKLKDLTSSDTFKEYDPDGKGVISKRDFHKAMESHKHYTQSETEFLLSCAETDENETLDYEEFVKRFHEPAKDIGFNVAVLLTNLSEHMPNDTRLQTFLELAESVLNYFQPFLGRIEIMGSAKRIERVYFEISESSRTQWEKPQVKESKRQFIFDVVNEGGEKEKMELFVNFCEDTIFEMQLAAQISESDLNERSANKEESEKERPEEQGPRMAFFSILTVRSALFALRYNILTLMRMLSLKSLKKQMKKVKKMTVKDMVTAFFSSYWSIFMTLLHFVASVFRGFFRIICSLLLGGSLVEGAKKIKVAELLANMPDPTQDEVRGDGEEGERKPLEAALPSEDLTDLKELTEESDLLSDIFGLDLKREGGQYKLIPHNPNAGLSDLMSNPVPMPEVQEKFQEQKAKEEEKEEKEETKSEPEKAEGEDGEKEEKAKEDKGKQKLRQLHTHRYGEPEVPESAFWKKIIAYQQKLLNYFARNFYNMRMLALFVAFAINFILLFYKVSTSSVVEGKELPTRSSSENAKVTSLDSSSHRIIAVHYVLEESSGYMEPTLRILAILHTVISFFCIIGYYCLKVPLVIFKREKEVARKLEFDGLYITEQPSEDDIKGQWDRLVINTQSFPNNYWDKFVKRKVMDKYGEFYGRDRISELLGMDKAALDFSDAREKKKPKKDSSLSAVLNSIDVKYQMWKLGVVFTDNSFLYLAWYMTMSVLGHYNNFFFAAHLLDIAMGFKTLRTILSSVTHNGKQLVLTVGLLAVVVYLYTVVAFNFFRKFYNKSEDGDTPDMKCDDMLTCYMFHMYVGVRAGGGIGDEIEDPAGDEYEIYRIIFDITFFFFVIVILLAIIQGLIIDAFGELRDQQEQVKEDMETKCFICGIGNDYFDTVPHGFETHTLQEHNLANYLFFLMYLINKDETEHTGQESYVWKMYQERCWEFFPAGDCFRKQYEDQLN
Target sequence in this assay (P68106 whole entry, further chain): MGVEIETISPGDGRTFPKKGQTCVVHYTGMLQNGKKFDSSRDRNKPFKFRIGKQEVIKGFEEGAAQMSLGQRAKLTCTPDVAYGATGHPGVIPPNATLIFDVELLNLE
The target of data set [3] is T1, RyR2. Description: biochemical.
Target sequence in this assay (Q92736 whole entry): as the sequence (Q92736 whole entry) above
Target sequence in this assay (P68106 whole entry, further chain): as the sequence (P68106 whole entry, further chain) above
A short description of data set [4]: Morning and evening plasma and brain exposure after 1-week dosing in drinking water. The format is in vivo. As to conditions: rat; for Brain / Plasma: 1 week.
The target in data set [5] is T1, RyR2. Description: Calstabin2 binding to RyR2 immunoprecipitated from human HD cortex lysate (immunoblot). To be noted: FIG. 1. The method, then: Brain microsomes were prepared from human hippocampus and cortex samples taken from HD patients. Control samples were from patients that were negative in neuropathological diagnoses.
RyR2 was immunoprecipitated from Cortex lysate (+/−various concentrations of Compound 2) with an RyR2 specific antibody (2 μg) in 0.5 ml of a modified RIPA buffer (50 mM Tris-HCl pH 7.2 0.9% NaCl, 5.0 mM NaF, 1.0 mM Na3VO4, 1% Triton-X100, and protease inhibitors) and left overnight at 4° C. The immune complexes were incubated with protein A Sepharose beads at 4° C. for 1 h and the beads are washed three times with RIPA buffer. […] Immunoblots were developed using antibodies against RyR and Calstabin.
A general note: In western blotting, separated proteins are transferred to a membrane and probed.

Data set [6] can be described thus: Oral bioavailability and pharmacokinetics in blood plasma after oral gavage. The format is in vivo, Sprague-Dawley rats. To be noted: Sprague-Dawley; for Cmax: po. The method, then:
(§1) Analytical instrument: Waters Acquity Class H UPLC equipped with Waters SQ3100 mass detector.
1). Initial non-terminal assessment of compound oral bioavailability and pharmacokinetics in blood plasma.
Sprague-Dawley rats were dosed via oral gavage (20 mg/kg); blood samples were drawn at 30 min, 1 h, 4 h and 12 h and plasma concentrations were determined via UPLC/MS. The 12-hour exposure (AUC12, Table 2) was determined via trapezoidal integration of the observed concentrations.
(§2) The concentration results were used to estimate PK parameters (i.e. C0, T1/2, Vd, AUCinf) based on noncompartmental distribution and mono-exponential concentration decay. The half-life value thus obtained was also used to estimate the AUCinf for the PO dosing.

Data set [7] is described as follows: Brain exposure: brain and plasma concentrations 4 h after oral administration. The format is in vivo. As to conditions: Sprague-Dawley, rat, PO 20 mg/kg; for concentration at 4 h: terminal sampling. The method, then: as §1
Brain and plasma concentrations 4 h after oral administration (corresponding to Tmax in the first experiment) were determined via UPLC/MS, and the corresponding brain-to-plasma ratio values were calculated.

Data set [8] has as its system RyR. Description: RyR mediated calcium leak from human HD cortex microsomes (Fluo-4, thapsigargin). It is filed as biochemical. As to conditions: thapsigargin 3 μM, FIG. 3. The method, then:
Human cortex Microsomes (5 μg/ml) were diluted into a 20 mM HEPES buffer (pH 7.2) containing 7 mM NaCl, 1.5 mM MgCl2, 120 mM K-gluconate, 5 mM K-phosphate, 8 mM K-phosphocreatine, 1 μM EGTA and 2 μM CaCl2) mixed with 3 μM Fluo-4 and added to multiple wells of a 96-well plate. Calcium (Ca^2+) loading of the microsomes was initiated by adding 1 mM ATP. After Ca^2+ uptake, 3 μM thapsigargin was added. (A)—Representative traces of Ca^2+ leak from Human cortex microsomes induced by addition of thapsigargin (3 μM). (B)—Ca^2+ leak was calculated as the percent increase in signal after addition of thapsigargin. Data (mean±SEM) analysis was performed by Student t-test (n=2 for each group) **P<0.01.

Data set [9] can be described thus: Pharmacokinetics by intravenous (IV) dosing (tail vein). The format is in vivo, rat. The method, then: Additional PK parameters were obtained using IV dosing to complement the oral PK data and to determine absolute oral bioavailability. Compounds were administered via tail vein injection and blood samples were obtained at 30 min, 1 h, 4 h and 12h. The drug concentration in plasma was determined via UPLC/MS.
as §2

Setting [10] is: 5 mg/kg/day in drinking water, 7:00AM, 5 mg/kg/day.
The mark [11] stands for this setting: 5 mg/kg/day in drinking water, 7:00PM, 5 mg/kg/day.
[12] abbreviates: 20 mg/kg/day in drinking water, 7:00AM, 20 mg/kg/day.
The mark [13] stands for this setting: 20 mg/kg/day in drinking water, 7:00PM, 20 mg/kg/day.

By inhibition is commonly meant the drop in the measured response relative to a control, in per cent. With `O=C(N1CCNCC1)N1CCSc2cc(F)c(F)cc2C1` [Compound 6, (7,8-difluoro-2,3-dihydrobenzo[f][1,4]thiazepin-4(5H)-yl)(piperazin-1-yl)methanone], the inhibition at 10 µM in data set [1] was 71%.
The same measure, in the same setting: to `O=C(N1CCNCC1)N1CCSc2cccc(C(F)(F)F)c2C1` [Compound 5, piperazin-1-yl(6-(trifluoromethyl)-2,3-dihydrobenzo[f][1,4]thiazepin-4(5H)-yl)methanone] belongs 92%.
On to `COc1ccc2c(c1)CN(C)CCS2` [Compound S107, reference compound], for which the “Calstabin2 binding to HD microsomes, concentration dependence” value in [2] is “increase Calstabin2 binding to HD microsomes in a concentration dependent manner”.
On to `O=C(N1CCNCC1)N1CCSc2cccc(Cl)c2C1` [Compound 7, (6-chloro-2,3-dihydrobenzo[f][1,4]thiazepin-4(5H)-yl)(piperazin-1-yl)methanone], for which, in [1], the inhibition at 10 µM was 89%.
The EC50 is the midpoint of the concentration-response curve. As usually defined, the AUC(0-inf) is total exposure, with the tail of the curve extrapolated. A higher AUC(0-inf) goes with more exposure. As a reminder, the Cmax is the highest concentration seen after dosing. The Tmax is the time at which the peak concentration occurs. In general, Kp refers to the ratio of the level in a tissue or fluid to that in plasma or blood. One may read the Vd as the apparent volume that relates the amount in the body to the concentration in plasma or blood. Compound `O=C(N1CCNCC1)N1CCSc2ccc(C(F)(F)F)cc2C1` [Compound 2, piperazin-1-yl(7-(trifluoromethyl)-2,3-dihydrobenzo[f][1,4]thiazepin-4(5H)-yl) methanone] gave a concentration for a half-maximal effect (EC50) in [3] of 100 nM. Besides, the Brain in data set [4] (setting [10]) was 0.50 ± 0.12 μg/g and 1.44 ± 0.36 μM; in data set [4] (setting [11]) it was 0.12 ± 0.08 μg/g and 0.36 ± 0.22 μM; in data set [4] (setting [12]), 3.05 ± 0.71 μg/g and 8.82 ± 2.05 μM; in data set [4] (setting [13]) it was 1.20 ± 0.96 μg/g and 3.48 ± 2.79 μM. Also, the Plasma was 0.09 ± 0.03 μg/mL and 0.25 ± 0.08 μM in [4] (setting [10]); 0.02 ± 0.01 μg/mL and 0.07 ± 0.02 μM in data set [4] (setting [11]); 0.42 ± 0.02 μg/mL and 1.22 ± 0.05 μM in data set [4] (setting [12]); 0.20 ± 0.12 μg/mL and 0.58 ± 0.36 μM in data set [4] (setting [13]). The “brain exposure after a week of dosing” value in data set [4] (1 week in drinking water) is on record as “has brain exposure”. Besides, in data set [4] (1 week in drinking water), the “plasma and tissue exposure levels, morning versus evening” value was “higher in the morning than in the evening”. Also, the “Calstabin2/RyR2 binding in HD brain microsome lysates” value in data set [5] is on record as “improves Calstabin2/RyR2 binding; also recorded: improves Calstabin rebinding to RyR2”. Further, the AUC(0-inf) in data set [6] (rat, plasma, oral, 20 mg/kg) is 2730 ng·h/mL; in data set [9] (rat plasma, IV bolus 2 mg/kg) it was 736 ng·h/mL. Further, the Cmax was 320 ng/mL in [6] (rat, plasma, 20 mg/kg, rat plasma, PO 20 mg/kg, Table 4 summary, read-out: Cmax C4 h); 210 ng/mL and 610 nM in data set [6] (rat, plasma, 20 mg/kg, rat plasma, PO 20 mg/kg, read-out: Cmax). The Tmax in data set [6] (rat plasma, PO 20 mg/kg) was 4 h. In addition, the AUC(0-t) in data set [6] (rat plasma, PO 20 mg/kg, 12 h, trapezoidal, read-out: AUCt (12 h)) is 2090 ng·h/mL and 6.06 µM·h. For the same compound, the concentration at 4 h in data set [7] (brain, read-out: Brain C4 h) was 2160 ng/g and 6.25 µM; in data set [7] (plasma, read-out: Plasma C4 h), 420 ng/mL and 1.22 µM. In addition, in [7] (brain/plasma), the Kp at 4 h came to 5.1. Further, in data set [8], the “calcium leak from HD microsomes” value is “decreases calcium leak from HD microsomes”. For the same compound, the “Calstabin2 binding to HD microsomes, concentration dependence” value in data set [2] is reported as “increase Calstabin2 binding to HD microsomes in a concentration dependent manner”. Moreover, in [9] (plasma, rat, IV bolus 2 mg/kg), the Vd turned out to be 10.9 L/kg. The half-life in data set [9] (plasma, rat, IV bolus 2 mg/kg, read-out: T½ (converted)) is 2.77 h. For the same compound, the concentration at 30 min in data set [9] (rat plasma, IV bolus 2 mg/kg, 30 min, read-out: C 1st time (30 min)) is 180 ng/mL. For the same compound, in [9] (rat, PO 20 mg/kg vs IV bolus 2 mg/kg), the “F % PO/IV bolus” value is given as 37%. The inhibition at 10 µM in [1] lay in the range of 86 to 94%.
In the case of `O=C(N1CCNCC1)N1CCSc2cccc(I)c2C1` [Compound 10, (6-iodo-2,3-dihydrobenzo[f][1,4]thiazepin-4(5H)-yl)(piperazin-1-yl)methanone], the inhibition at 10 µM in data set [1] worked out at 74%.
Regarding `O=C(N1CCNCC1)N1CCSc2cc(C(F)(F)F)ccc2C1` [Compound 1, piperazin-1-yl(8-(trifluoromethyl)-2,3-dihydrobenzo[f][1,4]thiazepin-4(5H)-yl)methanone], the inhibition at 10 µM in data set [1] lay in the range of 95 to 96%.
On the same count and under the same terms, to `O=C(N1CCNCC1)N1CCSc2cccc(Br)c2C1` [Compound 9, (6-bromo-2,3-dihydrobenzo[f][1,4]thiazepin-4(5H)-yl)(piperazin-1-yl)methanone] belongs 89%; to `O=C(N1CCNCC1)N1CCSc2ccc(OC(F)(F)F)cc2C1` [Compound 4, piperazin-1-yl(7-(trifluoromethoxy)-2,3-dihydrobenzo[f][1,4]thiazepin-4(5H)-yl)methanone], 142%.
Turning to `O=C(N1CCNCC1)N1CCSc2c(cccc2C(F)(F)F)C1` [Compound 3, piperazin-1-yl(9-(trifluoromethyl)-2,3-dihydrobenzo[f][1,4]thiazepin-4(5H)-yl)methanone], the inhibition at 10 µM in data set [1] is 85%.
For `O=C(N1CCNCC1)N1CCSc2cccc(OC(F)(F)F)c2C1` [Compound 8, piperazin-1-yl(6-(trifluoromethoxy)-2,3-dihydrobenzo[f][1,4]thiazepin-4(5H)-yl)methanone], the inhibition at 10 µM in data set [1] was found to be 80%.
